The NIST ThermoML archive (doi:10.1016/j.jct.2006.08.009)

Experiment: mn = molality of the nth substance listed, in mol/kg
Conditions: 350 kPa, Liquid; for apparent molar heat capacity: Extra sensitive DSC

OC[C@@H](O)[C@@H](O)CO [meso-1,2,3,4-butanetetrol] + O
Conditions | apparent molar heat capacity [J/K/mol] | mass density [kg/m3]
278.15 K, m1 = 0.0201 | 261 | 1000.64
278.15 K, m1 = 0.05 | 279 | 1001.78
278.15 K, m1 = 0.0999 | 275.3 | 1003.47
278.15 K, m1 = 0.2501 | 273 | 1009.14
278.15 K, m1 = 0.4998 | 272.1 | 1017.67
278.15 K, m1 = 1 | 270.3 | 1034.19
278.15 K, m1 = 2.002 | 264 | 1062.98
278.15 K, m1 = 3.003 | 267.2 | 1087.04
283.15 K, m1 = 0.0201 | 273 | 1000.38
283.15 K, m1 = 0.05 | 290 | 1001.54
283.15 K, m1 = 0.0999 | 287.2 | 1003.19
283.15 K, m1 = 0.2501 | 285.1 | 1008.79
283.15 K, m1 = 0.4998 | 284.1 | 1017.48
283.15 K, m1 = 1 | 282.7 | 1033.48
283.15 K, m1 = 2.002 | 277.2 | 1061.96
283.15 K, m1 = 3.003 | 279.1 | 1085.8
288.15 K, m1 = 0.0201 | 282 | 999.84
288.15 K, m1 = 0.05 | 300 | 1000.96
288.15 K, m1 = 0.0999 | 296.3 | 1002.66
288.15 K, m1 = 0.2501 | 294.4 | 1008.13
288.15 K, m1 = 0.4998 | 293.4 | 1016.68
288.15 K, m1 = 1 | 291.9 | 1032.49
288.15 K, m1 = 2.002 | 286.3 | 1060.61
288.15 K, m1 = 3.003 | 288 | 1084.24
293.15 K, m1 = 0.0201 | 290 | –
293.15 K, m1 = 0.05 | 307 | –
293.15 K, m1 = 0.0999 | 303.8 | –
293.15 K, m1 = 0.2501 | 302.3 | –
293.15 K, m1 = 0.4998 | 301.3 | –
293.15 K, m1 = 1 | 299.9 | –
293.15 K, m1 = 2.002 | 294.2 | –
293.15 K, m1 = 3.003 | 295.7 | –
298.15 K, m1 = 0.0201 | 296 | 997.79
298.15 K, m1 = 0.05 | 314 | 998.88
298.15 K, m1 = 0.0999 | 310.6 | 1000.55
298.15 K, m1 = 0.2501 | 309 | 1005.86
298.15 K, m1 = 0.4998 | 308.1 | 1014.19
298.15 K, m1 = 1 | 306.6 | 1029.78
298.15 K, m1 = 2.002 | 300.7 | 1057.38
298.15 K, m1 = 3.003 | 302.1 | 1080.61
303.15 K, m1 = 0.0201 | 301 | –
303.15 K, m1 = 0.05 | 320 | –
303.15 K, m1 = 0.0999 | 316.6 | –
303.15 K, m1 = 0.2501 | 315 | –
303.15 K, m1 = 0.4998 | 314 | –
303.15 K, m1 = 1 | 312.5 | –
303.15 K, m1 = 2.002 | 306.6 | –
303.15 K, m1 = 3.003 | 307.8 | –
308.15 K, m1 = 0.0201 | 307 | 994.74
308.15 K, m1 = 0.05 | 325 | 995.77
308.15 K, m1 = 0.0999 | 321.8 | 997.29
308.15 K, m1 = 0.2501 | 320.2 | 1002.7
308.15 K, m1 = 0.4998 | 319.2 | 1010.88
308.15 K, m1 = 1 | 317.6 | 1026.18
308.15 K, m1 = 2.002 | 311.8 | 1053.42
308.15 K, m1 = 3.003 | 312.9 | 1076.46
313.15 K, m1 = 0.0201 | 311 | –
313.15 K, m1 = 0.05 | 330 | –
313.15 K, m1 = 0.0999 | 326.5 | –
313.15 K, m1 = 0.2501 | 324.8 | –
313.15 K, m1 = 0.4998 | 323.8 | –
313.15 K, m1 = 1 | 322.3 | –
313.15 K, m1 = 2.002 | 316.4 | –
313.15 K, m1 = 3.003 | 317.4 | –
318.15 K, m1 = 0.0201 | 315 | 990.96
318.15 K, m1 = 0.05 | 334 | 991.95
318.15 K, m1 = 0.0999 | 330.6 | 993.44
318.15 K, m1 = 0.2501 | 328.9 | 998.78
318.15 K, m1 = 0.4998 | 327.9 | –
318.15 K, m1 = 1 | 326.4 | –
318.15 K, m1 = 2.002 | 320.6 | –
318.15 K, m1 = 3.003 | 321.5 | –
